Test results as given in patent publication US20250051300A1, “GRAM-NEGATIVE SPECIFIC ANTIBIOTICS SPARING EFFECT ON GUT MICROBIOME” (THE BOARD OF TRUSTEES OF THE UNIVERSITY OF ILLINOIS, priority 2021, published 2025).

Assays:
[1] = test system: Bacillus anthracis; assay: microbe, parasite or virus in culture; type: cell-based
[2] = test system: Enterococcus faecalis; assay: MIC, micro-dilution broth method (CLSI); type: cell-based
[3] = test system: E. coli BW25113 LolC/LolE mutants; assay: MIC against lolamycin-resistant LolCDE mutants; type: cell-based, Escherichia coli
[4] = test system: K. pneumoniae ATCC 27736; assay: Resistance frequency, large inoculum method; type: cell-based, Klebsiella pneumoniae; conditions: wild-type K. pneumoniae ATCC 27736, 8×MIC
Protocol: (§1) Selection of resistant mutants. Resistant mutants were selected using the large inoculum method. Briefly, E. coli BW25113, K. pneumoniae ATCC 27736, or E. cloacae ATCC 29893 (˜1.0×10^7 c.f.u.) was plated on 100-mm plates of Luria Bertani agar containing 8, 16, 32, or 64 μg/mL, lolamycin. For E. coli ΔtolC (JW5503), ˜1.0×10^7 c.f.u. was plated on 100-mm plates of Luria Bertani agar containing 0.063, 0.13, 0.25, 0.5 μg/mL lolamycin. Colonies were visible after incubating at 37° C. for 48 h. Resistant colonies were confirmed by growing colonies in selective media with the same concentration of lolamycin.

[5] = test system: E. cloacae ATCC 29893; assay: Resistance frequency, large inoculum method; type: cell-based, Enterobacter cloacae; conditions: wild-type E. cloacae ATCC 29893, 8×MIC
Protocol: as §1

[6] = test system: K. pneumoniae AR0040; assay: Acute pneumonia bacterial burden model; type: in vivo, CD-1 mice; conditions: colistin-resistant K. pneumoniae, 100 mg/kg IP (FIG. 7C)
[7] = test system: E. cloacae AR0163; assay: Bacterial sepsis survival model; type: in vivo, CD-1 mice; conditions: colistin-resistant E. cloacae, 100 mg/kg IP twice daily for 3 days (FIG. 7F)
[8] = test system: gut microbiome; conditions: mouse, in vivo, po
[9] = test system: Bacteroides vulgatus; assay: MIC, gut commensal bacteria, micro-dilution broth
[10] = test system: Faecalibacterium prausnitzii; assay: MIC, gut commensal bacteria, micro-dilution broth
[11] = test system: Streptococcus salivarius; assay: MIC, gut commensal bacteria, micro-dilution broth
[12] = test system: Streptococcus parasanguinis; assay: MIC, gut commensal bacteria, micro-dilution broth
[13] = test system: Lactobacillus reuteri; assay: MIC, gut commensal bacteria, micro-dilution broth

Compound: Cc1cc(-c2c[nH]nc2-c2cccc(OCc3cccc(C#N)c3)c2)cc(C)n1 [Compound 12, 3-((3-(4-(2,6-dimethylpyridin-4-yl)-1H-pyrazol-3-yl)phenoxy)methyl)benzonitrile]
- MIC [1]: > 128 µg/mL
- MIC ([2]; Enterococcus faecalis): > 128 µg/mL
- MIC ([2]; Enterococcus faecalis KLE 2341, BHI-ych, listed as Lolamycin): >128 µg/mL
- MIC ([2]; Enterococcus faecalis, ATCC19433): > 128 µg/mL
- MIC ([3]; E. coli BW25113 mutant D264N (LolE), selected at 32-fold MIC): >128 µg/mL
- MIC ([3]; E. coli BW25113 mutant E195K (LolC), selected at 32-fold MIC): >128 µg/mL
- MIC ([3]; E. coli BW25113 mutant E255D (LolC), selected at 32-fold MIC): >128 µg/mL
- MIC ([3]; E. coli BW25113 mutant F367S (LolE), selected at 32-fold MIC): >128 µg/mL
- MIC ([3]; E. coli BW25113 mutant I206N (LolE), selected at 32-fold MIC): >128 µg/mL
- MIC ([3]; E. coli BW25113 mutant M262I (LolC), selected at 32-fold MIC): >128 µg/mL
- MIC ([3]; E. coli BW25113 mutant N265K (LolC), selected at 32-fold MIC): >128 µg/mL
- MIC ([3]; E. coli BW25113 mutant Q258P (LolC), selected at 32-fold MIC): >128 µg/mL
- MIC ([3]; Escherichia coli, BW25113): > 128 µg/mL
- resistance frequency [4]: 1.2×10^−8
- resistance frequency [5]: 5.2×10^−7
- efficacy, bacterial burden [6]: showed the efficacy
- efficacy, survival [7]: showed the efficacy
- effect on gut microbiome taxonomic composition [8]: did not cause any drastic changes in taxonomic composition
- MIC ([9]; Bacteroides vulgatus KLE 2303, BHI-ych, listed as Lolamycin): >128 µg/mL
- MIC ([9]; Phocaeicola vulgatus): > 128 µg/mL
- MIC ([10]; Faecalibacterium prausnitzii ATCC 27768, BHI-ych, listed as Lolamycin): >128 µg/mL
- MIC ([10]; Faecalibacterium prausnitzii, ATCC27768): > 128 µg/mL
- MIC ([11]; Streptococcus salivarius): > 128 µg/mL
- MIC ([11]; Streptococcus salivarius KLE 2370, BHI-ych, listed as Lolamycin): >128 µg/mL
- MIC ([12]; Streptococcus parasanguinis): > 128 µg/mL
- MIC ([12]; Streptococcus parasanguinis KLE 2375, BHI-ych, listed as Lolamycin): >128 µg/mL
- MIC ([13]; Lactobacillus reuteri ATCC 23272, BHI-ych, listed as Lolamycin): >128 µg/mL
- MIC ([13]; Limosilactobacillus reuteri, ATCC23272): > 128 µg/mL
